{
  "source": "patent US20130164325A1",
  "about": "“CERAMIDE-LIKE GLYCOLIPID-ASSOCIATED BACTERIAL VACCINES AND USES THEREOF” (Albert Einstein College of Medicine of Yeshiva University, priority 2010, published 2013)",
  "test_system": "mouse splenocytes",
  "assay": "Activation of mouse splenocytes with glycolipid-treated BMDCs, IFNγ production",
  "format": "cell-based",
  "conditions": "free glycolipid, compared to vehicle control (FIG. 5B)",
  "data": [
    {"smiles": "CCCCCCCCCCCCCCCCCCCCCCCCCC(=O)N[C@@H](CO[C@H]1O[C@H](CO)[C@H](O)[C@H](O)[C@H]1O)[C@H](O)[C@H](O)CCCCCCCCCCCCCC", "note": "[KRN7000, (2S,3S,4R)-1-O-(α-D-galactopyranosyl)-N-hexacosanoyl-2-amino-1,3,4-octadecanetriol]", "values": [
      {"measurement": "IFNγ production", "result": "induced IFNγ production"}
    ]}
  ]
}
